Reference: the NIST ThermoML archive (doi:10.1021/acs.jced.6b00606)

What was measured:
[1] = molar heat capacity at constant pressure; xn = mol fraction of the nth substance listed; conditions: 100 kPa, Liquid, Extra sensitive DSC
[2] = excess molar enthalpy (molar enthalpy of mixing); xn = mol fraction of the nth substance listed; conditions: 308.15 K, 1e-07 kPa, Liquid, Calvet calorimetry

O=C1CCCCCC1 [cycloheptanone] + C1CCOCC1
molar heat capacity at constant pressure [J/K/mol], [1]
Conditions	293.15 K	298.15 K	303.15 K	308.15 K
x2 = 0.1121	196.3	197.43	198.93	200.52
x2 = 0.1652	194.07	195.27	196.82	198.49
x2 = 0.2103	192.18	193.43	195.03	196.74
x2 = 0.2652	189.86	191.15	192.76	194.53
x2 = 0.3187	187.56	188.91	190.53	192.28
x2 = 0.3562	185.92	187.28	188.93	190.71
x2 = 0.4036	183.78	185.22	186.84	188.65
x2 = 0.4562	181.33	182.82	184.44	186.27
x2 = 0.4921	179.6	181.13	182.76	184.65
x2 = 0.5341	177.51	179.07	180.74	182.63
x2 = 0.5896	174.63	176.29	177.96	179.93
x2 = 0.6231	172.8	174.52	176.25	178.18
x2 = 0.6741	169.93	171.69	173.45	175.49
x2 = 0.7256	166.92	168.74	170.53	172.58
x2 = 0.7769	163.72	165.58	167.38	169.46
x2 = 0.8321	160.14	162	163.83	165.92
x2 = 0.8754	157.18	159.06	160.84	162.89
x2 = 0.9365	152.82	154.62	156.31	158.31

[2]
Conditions	excess molar enthalpy [kcal/mol]
x2 = 0.0898	0.0131
x2 = 0.1356	0.0179
x2 = 0.1846	0.0214
x2 = 0.2366	0.025
x2 = 0.2882	0.0271
x2 = 0.3312	0.0284
x2 = 0.3942	0.0295
x2 = 0.4412	0.0298
x2 = 0.4895	0.0298
x2 = 0.5326	0.0295
x2 = 0.5842	0.0287
x2 = 0.6335	0.0277
x2 = 0.6875	0.0261
x2 = 0.7289	0.0245
x2 = 0.7789	0.022
x2 = 0.8278	0.0185
x2 = 0.8799	0.0146
x2 = 0.9199	0.0104
